For 26 molecules, TGI results are on record in PubChem BioAssay (NCI).

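48-hour exposure; five concentrations; linearly interpolated endpoints. TGI marks complete inhibition of growth.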

Test systems include HOP-18 NSCLC; LXFL 529 NSCLC; KM20L2 colon; SNB-78 CNS; DMS 114 small cell lung; DMS 273 small cell lung; XF 498 CNS; M19-MEL melanoma; RXF-631 renal.
Holding throughout (assay): growth of human tumour cells (NCI), 48 h

Consider `O=C(CC(=O)c1ccccc1)C(=O)Nc1ccc(Cl)cc1`, for which the TGI was > 100 µM in the experiment with HOP-18 NSCLC; > 100 µM with LXFL 529 NSCLC; > 100 µM in the experiment with KM20L2 colon; > 100 µM with SNB-78 CNS; > 57 µM in the experiment on DMS 114 small cell lung; > 100 µM with DMS 273 small cell lung. Moreover, in the experiment with XF 498 CNS, the TGI is > 100 µM.

Turning to `Cc1ccc(NC(=O)/C(C#N)=C/c2ccccc2)c(C)c1`, the TGI in the experiment with HOP-18 NSCLC, in the experiment with LXFL 529 NSCLC, in the experiment with KM20L2 colon, in the experiment with SNB-78 CNS, in the experiment with M19-MEL melanoma and in the experiment on DMS 114 small cell lung was > 100 µM throughout. Also, the TGI in the experiment with DMS 273 small cell lung and in the experiment on XF 498 CNS was > 100 µM throughout.

As to `NC(CCCCNCc1ccccc1O)C(=O)O` (configuration not stated), the TGI in the experiment on HOP-18 NSCLC, with LXFL 529 NSCLC, with KM20L2 colon, with SNB-78 CNS, in the experiment with M19-MEL melanoma and in the experiment on DMS 114 small cell lung was > 100 µM throughout. In addition, the TGI with DMS 273 small cell lung was > 100 µM.

In the case of `N#CNC1=NC(N)C(c2nc3ccccc3[nH]2)=C(CCCC(=O)Nc2cccc([N+](=O)[O-])c2)N1` (configuration not stated), the TGI with HOP-18 NSCLC, with LXFL 529 NSCLC, with KM20L2 colon, with M19-MEL melanoma, in the experiment on DMS 114 small cell lung and in the experiment on DMS 273 small cell lung was > 100 µM throughout. Besides, the TGI with XF 498 CNS was > 100 µM.

Turning to `CC(C)N(C(=O)C12C3C4C1C1C2C3C41C(=O)N(C(C)C)C(C)C)C(C)C` (configuration not stated), the TGI in the experiment with LXFL 529 NSCLC, in the experiment on RXF-631 renal, in the experiment on KM20L2 colon, in the experiment with SNB-78 CNS, in the experiment with M19-MEL melanoma and in the experiment with DMS 114 small cell lung was > 50 µM in each case. Moreover, the TGI with DMS 273 small cell lung and in the experiment with XF 498 CNS was > 50 µM in each case.

In the case of `COc1cc(-c2cc(=O)c3ccccc3[nH]2)cc(OC)c1OC`, the TGI with LXFL 529 NSCLC, in the experiment on KM20L2 colon, in the experiment with SNB-78 CNS, in the experiment on M19-MEL melanoma, with DMS 114 small cell lung and with DMS 273 small cell lung was > 75 µM each time.

In the case of `CSC(=N)N1N=C2/C(=C/c3ccccc3)CCC[C@H]2[C@H]1c1ccccc1`, the TGI with HOP-18 NSCLC came to 14.3 µM; in the experiment with LXFL 529 NSCLC, 16.7 µM; in the experiment on KM20L2 colon, 5.97 µM; in the experiment with SNB-78 CNS, 34.6 µM; in the experiment on DMS 114 small cell lung, 7.83 µM; with DMS 273 small cell lung, 11.8 µM. The molecule further displayed a TGI in the experiment with XF 498 CNS of 23.5 µM.

For the molecule `CC(=O)Nc1ccc(S(=O)(=O)NN(C)S(=O)(=O)c2ccc(C)cc2)cc1`, the TGI in the experiment on KM20L2 colon, in the experiment on M19-MEL melanoma and in the experiment on DMS 114 small cell lung was > 100 µM throughout.

With `Cc1nnc(N/N=C(/C(=O)C(C#N)c2ccc(Cl)cc2)C(C#N)c2ccc(Cl)cc2)n1N` (configuration not stated), the TGI came out at 30 µM in the experiment with HOP-18 NSCLC; 26.6 µM in the experiment with LXFL 529 NSCLC; 35.4 µM in the experiment with RXF-631 renal; 41.2 µM with KM20L2 colon; 51.3 µM with SNB-78 CNS; 31.4 µM with DMS 114 small cell lung. The TGI in the experiment on DMS 273 small cell lung was found to be 34 µM; in the experiment on XF 498 CNS, 46.6 µM.

For the molecule `C/C(N=NS(=O)(=O)c1ccc(C)cc1)=C1\C=CC=CN1O`, the TGI with HOP-18 NSCLC, in the experiment with LXFL 529 NSCLC, in the experiment with RXF-631 renal, with KM20L2 colon, in the experiment on SNB-78 CNS and in the experiment on M19-MEL melanoma was > 100 µM throughout. Also, the TGI in the experiment with DMS 114 small cell lung, with DMS 273 small cell lung and with XF 498 CNS was > 100 µM in each case.

For `Nc1nc2c(ncn2CCCC(c2ccccc2)P(=O)(O)O)c(=O)[nH]1` (configuration not stated), the TGI with HOP-18 NSCLC, in the experiment on LXFL 529 NSCLC, in the experiment on KM20L2 colon, in the experiment with SNB-78 CNS, with M19-MEL melanoma and with DMS 114 small cell lung was > 100 µM throughout. In the experiment with DMS 273 small cell lung, the TGI was > 100 µM.

For `Cn1nc(-c2ccccc2)c(C(=O)/C=C/c2ccc(Cl)cc2)c(N2CCOCC2)c1=O`, the TGI worked out at 17 µM in the experiment on HOP-18 NSCLC; 9.89 µM in the experiment with LXFL 529 NSCLC; 23.2 µM in the experiment with RXF-631 renal; 13.8 µM with KM20L2 colon; 20.7 µM with M19-MEL melanoma; 9.83 µM in the experiment on DMS 114 small cell lung. Further, the TGI in the experiment with DMS 273 small cell lung was found to be 13.8 µM.

Turning to `O=C(O)C12CC3CC(CC(F)(C3)C1)C2`, the TGI in the experiment with LXFL 529 NSCLC, in the experiment with KM20L2 colon, in the experiment on SNB-78 CNS, in the experiment with M19-MEL melanoma, in the experiment with DMS 114 small cell lung and in the experiment with DMS 273 small cell lung was > 100 µM each time. Further, the TGI with XF 498 CNS is > 100 µM.

For the molecule `Nc1nc2ncn(CC(O)CO)c2c(=O)[nH]1` (configuration not stated), the TGI in the experiment on HOP-18 NSCLC, in the experiment on LXFL 529 NSCLC, with RXF-631 renal, in the experiment with KM20L2 colon, in the experiment with SNB-78 CNS and in the experiment with M19-MEL melanoma was > 100 µM throughout. Also, the TGI in the experiment with DMS 114 small cell lung and with DMS 273 small cell lung was > 100 µM in each case.

`CN(C)C(F)=PC(F)(F)F` (configuration not stated): the TGI in the experiment with HOP-18 NSCLC, in the experiment on LXFL 529 NSCLC, in the experiment with KM20L2 colon, in the experiment on SNB-78 CNS, with M19-MEL melanoma and with DMS 114 small cell lung was > 100 µM throughout. Besides, the TGI in the experiment with DMS 273 small cell lung and with XF 498 CNS was > 100 µM each time.

`O=C(Nc1nc2ncn(CCO)c2c(=O)[nH]1)c1ccccc1`: the TGI in the experiment on HOP-18 NSCLC, in the experiment on LXFL 529 NSCLC, in the experiment with KM20L2 colon, in the experiment on SNB-78 CNS, in the experiment on M19-MEL melanoma and in the experiment with DMS 114 small cell lung was > 100 µM in each case. Further, the TGI in the experiment with DMS 273 small cell lung was > 100 µM.

For the molecule `CCc1ccccc1NC(=O)CC1NC(=O)CS1` (configuration not stated), the TGI in the experiment on HOP-18 NSCLC, in the experiment with LXFL 529 NSCLC, in the experiment on RXF-631 renal, in the experiment with KM20L2 colon, with SNB-78 CNS and with M19-MEL melanoma was > 100 µM each time. Besides, the TGI with DMS 114 small cell lung, in the experiment on DMS 273 small cell lung and in the experiment with XF 498 CNS was > 100 µM throughout.

Consider `CS(=O)(=O)C1(Br)S(=O)(=O)OCCOS1(=O)=O`, for which the TGI in the experiment on LXFL 529 NSCLC, in the experiment with KM20L2 colon, with SNB-78 CNS, with M19-MEL melanoma, in the experiment on DMS 114 small cell lung and in the experiment on DMS 273 small cell lung was > 100 µM throughout. Moreover, the TGI in the experiment with XF 498 CNS is > 100 µM.

As to `Oc1cccnc1/C=N/OCc1ccccc1`, the TGI with LXFL 529 NSCLC, in the experiment on KM20L2 colon, in the experiment on SNB-78 CNS, with M19-MEL melanoma, in the experiment with DMS 114 small cell lung and in the experiment on DMS 273 small cell lung was > 100 µM each time. The TGI in the experiment with XF 498 CNS is > 100 µM.

As for `C#CCNC(=O)NC(CCCCNC(=O)OCc1ccccc1)C(=O)OCc1ccccc1` (configuration not stated), the TGI is > 68.2 µM in the experiment on HOP-18 NSCLC; > 100 µM in the experiment with LXFL 529 NSCLC; > 100 µM in the experiment on KM20L2 colon; 80.1 µM in the experiment on SNB-78 CNS; 27.6 µM in the experiment with M19-MEL melanoma; > 100 µM in the experiment on DMS 114 small cell lung. For the same molecule, the TGI was > 100 µM in the experiment with DMS 273 small cell lung and 35.7 µM in the experiment with XF 498 CNS.

As for `O=c1ccn(/C=C/C(O)C(O)CO)c(=O)[nH]1` (configuration not stated), the TGI in the experiment with HOP-18 NSCLC, in the experiment on LXFL 529 NSCLC, in the experiment on RXF-631 renal, with KM20L2 colon, in the experiment with SNB-78 CNS and with M19-MEL melanoma was > 100 µM throughout. Besides, the TGI with DMS 114 small cell lung, in the experiment with DMS 273 small cell lung and with XF 498 CNS was > 100 µM throughout.

Turning to `COc1ccc(/C=C/c2cc(OC)c(OCc3ccccc3)c(OC)c2)cc1`, the TGI with LXFL 529 NSCLC, in the experiment with RXF-631 renal, in the experiment with KM20L2 colon, in the experiment with SNB-78 CNS, in the experiment with M19-MEL melanoma and in the experiment with DMS 114 small cell lung was > 100 µM throughout. Moreover, the TGI with DMS 273 small cell lung and in the experiment with XF 498 CNS was > 100 µM each time.

With `CN(C)CC(/C(Cc1ccccc1)=N\NC(=S)NN)c1ccccc1` (configuration not stated), the TGI with LXFL 529 NSCLC, in the experiment on KM20L2 colon, with SNB-78 CNS, in the experiment with M19-MEL melanoma, with DMS 114 small cell lung and in the experiment with DMS 273 small cell lung was > 100 µM each time. Further, the TGI in the experiment on XF 498 CNS was > 100 µM.

On to `O=c1ccc2ccccc2c2ccccc12`, for which the TGI in the experiment on HOP-18 NSCLC is 14.9 µM; in the experiment on LXFL 529 NSCLC, 10.4 µM; in the experiment on KM20L2 colon, 3.85 µM; in the experiment on SNB-78 CNS, 17.7 µM; in the experiment with M19-MEL melanoma, 10.7 µM; in the experiment on DMS 114 small cell lung, 4.7 µM. Also, the TGI in the experiment on DMS 273 small cell lung was 14.3 µM.

As for `CSc1ccc2c(cc1=O)C(NC(=O)c1ccc(C#N)cc1)CCc1cc(O)c(O)c(O)c1-2` (configuration not stated), the TGI with LXFL 529 NSCLC was 44.4 µM; in the experiment with RXF-631 renal it was > 100 µM; in the experiment on KM20L2 colon, 45.5 µM; with SNB-78 CNS, > 100 µM; with M19-MEL melanoma, 39 µM; with DMS 114 small cell lung it was 44.9 µM. For the same molecule, the TGI in the experiment with DMS 273 small cell lung is > 100 µM; with XF 498 CNS it was 89.2 µM.

Regarding `COC(=O)CCC(NC(=S)N/N=C(\C)c1cnccn1)C(=O)OC` (configuration not stated), the TGI in the experiment on HOP-18 NSCLC, with LXFL 529 NSCLC, in the experiment on RXF-631 renal, with KM20L2 colon, in the experiment on SNB-78 CNS and in the experiment with M19-MEL melanoma was > 100 µM in each case. Besides, the TGI with DMS 114 small cell lung was 54.2 µM; in the experiment with XF 498 CNS, > 100 µM.
